Results on eight compounds are retold here after PMC7540527, “Synthesis of Antiviral Perfluoroalkyl Derivatives of Teicoplanin and Vancomycin” (Chemmedchem, 2020).

In brackets after ≈: the same amount, converted by molar mass. Counter-ions that a name gives are not always drawn. Like-named read-outs stand apart in the source and are kept apart here. Bounds are passed on as bounds.

The test system of data set [1] is Enterococcus faecalis ATCC 29212. Nature of the data set: Antibacterial MIC. In kind it is cell-based. As to conditions: Enterococcus faecalis, ATCC29212, read-out: MIC Enterococcus faecalis ATCC 29212.
The subject of another data set is E. faecalis 15376 VanA. Description: Antibacterial MIC. The conditions noted are these: Enterococcus faecalis, 15376VANA, read-out: MIC E. faecalis 15376 VanA. It counts as cell-based, Enterococcus faecalis.
Data set [2] deals with S. aureus MRSA ATCC 33591. Description: Antibacterial MIC. It counts as cell-based, Staphylococcus aureus. The conditions noted are these: Staphylococcus aureus, read-out: MIC S. aureus MRSA ATCC 33591.
The subject of data set [3] is Bacillus subtilis ATCC 6633. Description: Antibacterial MIC. It counts as cell-based. The conditions noted are these: Bacillus subtilis, ATCC6633, read-out: MIC Bacillus subtilis ATCC 6633.
Data set [4] relates to panel of Gram-positive bacteria. It counts as cell-based.
The test system of data set [5] is Staphylococcus epidermidis ATCC 35984 biofilm. Description: Antibacterial MIC. It counts as cell-based.
Data set [6] deals with Staphylococcus aureus MSSA ATCC 29213. Nature of the data set: Antibacterial MIC. It counts as cell-based. The conditions noted are these: Staphylococcus aureus, read-out: MIC Staphylococcus aureus MSSA ATCC 29213.
The next data set has as its system HeLa cells. The conditions noted are these: human.
Data set [7] deals with E. faecalis ATCC 51299 VanB. Description: Antibacterial MIC. In kind it is cell-based, Enterococcus faecalis. As to conditions: Enterococcus faecalis, ATCC51299, read-out: MIC E. faecalis ATCC 51299 VanB.
The subject of data set [8] is Zika virus (strain MR766). Nature of the data set: microbe, parasite or virus in culture. In kind it is cell-based. As to conditions: Vero.
A further data set has as its system Vero cells. As to conditions: African green monkey.
In data set [9] the test system is Coxsackie virus B4. Description: microbe, parasite or virus in culture. In kind it is cell-based. As to conditions: Enterovirus B, B4, Vero.
The subject of the next data set is Punta Toro virus. Description: microbe, parasite or virus in culture. It counts as cell-based. As to conditions: Vero.
In another data set the test system is Sindbis virus. Nature of the data set: microbe, parasite or virus in culture. In kind it is cell-based. The conditions noted are these: Vero.
For a further data set, the system named is Yellow Fever virus (17D). Nature of the data set: microbe, parasite or virus in culture. In kind it is cell-based. The conditions noted are these: Vero.
Data set [10] in a line: in vitro. As to conditions: African green monkey.
Another data set has as its system Reovirus-1. Nature of the data set: organism not typed. In kind it is cell-based. As to conditions: Vero.
A short description of data set [11]: in vitro. The conditions noted are these: human.
Data set [12] has as its system Respiratory syncytial virus. Nature of the data set: microbe, parasite or virus in culture. In kind it is cell-based. The conditions noted are these: human respiratory syncytial virus, HeLa, read-out: Antiviral EC50 Respiratory syncytial virus, Visual CPE score.
Data set [13] relates to Coxsackie virus B4. Description: microbe, parasite or virus in culture. The conditions noted are these: Enterovirus B, B4, HeLa, read-out: Antiviral EC50 Coxsackie virus B4, Visual CPE score. It counts as cell-based.
Data set [14] deals with Vesicular stomatitis virus. Description: microbe, parasite or virus in culture. In kind it is cell-based. As to conditions: HeLa, read-out: Antiviral EC50 Vesicular stomatitis virus, Visual CPE score.
The test system of data set [15] is herpes simplex virus type 1 (HSV-1). Nature of the data set: microbe, parasite or virus in culture. In kind it is cell-based. The conditions noted are these: Human alphaherpesvirus 1, HEL, read-out: Antiviral EC50 HSV‐1.
Data set [16] is described as follows: in vitro. As to conditions: human. The source holds these as a separate data set.
For data set [17], the system named is herpes simplex virus type 2 (HSV-2). Description: microbe, parasite or virus in culture. It counts as cell-based. The conditions noted are these: Human alphaherpesvirus 2, HEL, read-out: Antiviral EC50 HSV‐2.
The next data set relates to vaccinia virus. Description: microbe, parasite or virus in culture. In kind it is cell-based. As to conditions: Orthopoxvirus vaccinia, HEL, read-out: Antiviral EC50 Vaccinia.
Data set [18] deals with human adenovirus type 2 (AdV-2). Description: microbe, parasite or virus in culture. It counts as cell-based. As to conditions: Human mastadenovirus C, HEL, read-out: Antiviral EC50 AdV‐2.
For data set [19], the system named is thymidine-kinase deficient (TK-) mutant of HSV-1. Nature of the data set: microbe, parasite or virus in culture. In kind it is cell-based, herpes simplex virus type 1. As to conditions: Human alphaherpesvirus 1, HEL, read-out: Antiviral EC50 HSV‐1/TK−.
Data set [20] in a line: in vitro. The conditions noted are these: dog.
Data set [21] relates to influenza A/H1N1 A/Ned/378/05. Nature of the data set: microbe, parasite or virus in culture. In kind it is cell-based, influenza A virus. The conditions noted are these: Influenza A virus, H1N1, MDCK.
The subject of data set [22] is influenza A/H3N2 A/Victoria/361/11. Nature of the data set: microbe, parasite or virus in culture. As to conditions: Influenza A virus, H3N2, MDCK. It counts as cell-based, influenza A virus.
In data set [23] the test system is influenza B virus B/Ned/537/05. Nature of the data set: CPE reduction assay for influenza virus in MDCK cells, influenza B. In kind it is cell-based. The conditions noted are these: Influenza B virus. How it is done:
The CPE reduction assay for influenza virus was described in full detail in previous publications.41 The virus strains were: A/PR/8/34 (A/H1 N1); A/Virginia/ATCC3/2009 (A/H1 N1pdm); A/HK/7/87 (A/H3 N2); B/Ned/537/05; and B/HK/5/72. On day 0, Madin‐Darby canine kidney (MDCK) cells in 96‐well plates were infected with influenza virus at a multiplicity of infection (MOI) of 0.0004 plaque forming units (PFU) per cell. After three days incubation at 35 °C, virus‐induced CPE and compound cytotoxicity were scored by microscopy, after which the data were confirmed by formazan‐based MTS cell viability assay (CellTiter 96® AQueous One Solution Cell Proliferation Assay from Promega). The antiviral effect was expressed as the compound concentration producing 50 % inhibition of the virus‐induced CPE (EC50). Compound cytotoxicity was expressed as the compound concentration causing minimal changes in cell morphology (MCC), and 50 % cytotoxic concentration (CC50) based on MTS assay.42

[24] abbreviates: read-out: Antiviral EC50 A/H1N1 CPE.
The mark [25] stands for this setting: read-out: Antiviral EC50 A/H1N1 MTS.
[26] abbreviates: read-out: Antiviral EC50 A/H3N2 CPE.
The mark [27] stands for this setting: read-out: Antiviral EC50 A/H3N2 MTS.

The MIC is the least concentration at which growth counts as inhibited. `CC(C)C[C@H](C(=O)N[C@H]1C(=O)N[C@@H](CC(N)=O)C(=O)N[C@H]2C(=O)N[C@H]3C(=O)N[C@H](C(=O)N[C@H](C(=O)O)c4cc(O)cc(O)c4-c4cc3ccc4O)[C@H](O)c3ccc(c(Cl)c3)Oc3cc2cc(c3O)Oc2ccc(cc2Cl)[C@H]1O)n1cc(COCCOCCOCCOCCOCCCC(F)(F)C(F)(F)C(F)(F)C(F)(F)C(F)(F)C(F)(F)C(F)(F)C(F)(F)F)nn1` [Compound 13]: the MIC in data set [1] was 4 µg/mL (≈ 2.16 µM); in the data set on E. faecalis 15376 VanA it was 256 µg/mL (≈ 139 µM); in data set [2], 8 µg/mL (≈ 4.33 µM); in [3], 16 µg/mL (≈ 8.66 µM); in data set [6], 8 µg/mL (≈ 4.33 µM); in [7] it was 32 µg/mL (≈ 17.3 µM). Moreover, in the data set with MDCK cells, the “Cytotoxicity in MDCK cells (in words)” value is reported as “highly cytotoxic”. Moreover, the figures for the CC50 in the data set with MDCK cells (dog) and in the data set with HeLa cells were 0.8 µM and above 100 µM, respectively. Further, in the data set with MDCK cells (dog), the “Cytotoxicity MCC (minimum cytotoxic concentration)” value was 0.8 µM. Also, the “Antibacterial activity (in words)” value in data set [4] is recorded as “moderate activity”. In addition, the “MIC Staphylococcus epidermidis ATCC 35984 biofilm” value in data set [5] was found to be 16 µg/mL (≈ 8.66 µM). Moreover, the “Cytotoxicity MCC” value with HeLa cells is given as at least 100.

Take `COc1c(C)c2c(c(O)c1C/C=C(\C)CCC(=O)O)C(=O)OC2` [Mycophenolic acid]: the EC50 is 1.5 µM in data set [8] (read-out: Antiviral EC50 Zika virus, MTS); 0.8 µM in data set [8] (read-out: Antiviral EC50 Zika virus, Visual CPE score); above 100 µM in the data set with Coxsackie virus B4 [9] (read-out: Antiviral EC50 Coxsackie virus B4, MTS); above 100 µM in the data set with Coxsackie virus B4 [9] (read-out: Antiviral EC50 Coxsackie virus B4, Visual CPE score); 10.6 µM with Punta Toro virus (read-out: Antiviral EC50 Punta Toro virus, MTS); above 100 µM in the data set on Punta Toro virus (read-out: Antiviral EC50 Punta Toro virus, Visual CPE score). Moreover, the EC50 in the data set with Sindbis virus (read-out: Antiviral EC50 Sindbis virus, MTS) is 4 µM; in the data set with Sindbis virus (read-out: Antiviral EC50 Sindbis virus, Visual CPE score), 5.7 µM; in the data set on Yellow Fever virus (17D) (read-out: Antiviral EC50 Yellow Fever virus, MTS), 1.4 µM; with Yellow Fever virus (17D) (read-out: Antiviral EC50 Yellow Fever virus, Visual CPE score) it was above 100 µM; with Reovirus-1 (read-out: Antiviral EC50 Reovirus-1, MTS), 4 µM; with Reovirus-1 (read-out: Antiviral EC50 Reovirus-1, Visual CPE score) it was 3.3 µM. For the same compound, the “Cytotoxicity MCC” value in the data set on Vero cells is above 100. Further, in the data set “in vitro [10]”, the CC50 was above 100 µM.

`NC(=O)c1ncn([C@@H]2O[C@H](CO)[C@@H](O)[C@H]2O)n1` [Ribavirin] registered a CC50 in the data set “in vitro [11]” above 250 µM. The EC50 worked out at 5 µM in data set [12], 126 µM in the data set on Coxsackie virus B4 [13] and 87 µM in data set [14].

In the case of `Nc1nc2c(ncn2COCCO)c(=O)[nH]1` [acyclovir], the results for the EC50 (in data set [15]; in data set [17]; in the data set on vaccinia virus) were 2.4 µM, 0.05 µM and above 250 µM, respectively. This compound also registered a CC50 in the data set “in vitro [16]” above 250 µM.

Consider `Cc1cn([C@H]2C[C@H](F)[C@@H](CO)O2)c(=O)[nH]c1=O` [alovudine], for which the CC50 in “in vitro [16]” is above 250 µM. For the same compound, the EC50 in [18] came to 5.9 µM.

Regarding `Nc1ccn(C[C@@H](CO)OCP(=O)(O)O)c(=O)n1` [cidofovir], the EC50 in [15] came out at 2.4 µM; in data set [17] it was 1 µM; in the data set on vaccinia virus it was 10 µM; in data set [19], 4.7 µM; in data set [18], 6.4 µM. Also, the CC50 in the data set “in vitro [16]” is above 250 µM.

Turning to `CN[C@H](CC(C)C)C(=O)N[C@H]1C(=O)N[C@@H](CC(N)=O)C(=O)N[C@H]2C(=O)N[C@H]3C(=O)N[C@H](C(=O)N[C@H](C(=O)O)c4cc(O)cc(O)c4-c4cc3ccc4O)[C@H](O)c3ccc(c(Cl)c3)Oc3cc2cc(c3O[C@@H]2O[C@H](CO)[C@@H](O)[C@H](O)[C@H]2O[C@H]2C[C@](C)(N)[C@H](O)[C@H](C)O2)Oc2ccc(cc2Cl)[C@H]1O` [vancomycin⋅HCl], the CC50 in the data set “in vitro [20]” is above 100 µM. Also, the “Cytotoxicity MCC (minimum cytotoxic concentration)” value in the data set with MDCK cells (dog) is above 100 µM. Moreover, the EC50 in data set [21] (setting [24]) was above 100 µM; in data set [21] (setting [25]), above 100 µM; in data set [22] (setting [26]) it was above 100 µM; in [22] (setting [27]), above 100 µM; in data set [23] (MDCK, read-out: Antiviral EC50 Influenza B CPE), above 100 µM; in [23] (MDCK, read-out: Antiviral EC50 Influenza B MTS) it was above 100 µM.

Consider `CC(=O)N[C@H]1[C@H]([C@H](O)[C@H](O)CO)OC(C(=O)O)=C[C@@H]1N=C(N)N` [zanamivir], for which the CC50 in “in vitro [20]” is above 100 µM. The “Cytotoxicity MCC (minimum cytotoxic concentration)” value in the data set on MDCK cells (dog) was above 100 µM. Further, the EC50 is 1.5 µM in data set [21] (setting [24]); 3.1 µM in [21] (setting [25]); 20 µM in [22] (setting [26]); 9 µM in [22] (setting [27]); 1.7 µM in [23] (MDCK cells, B/Ned/537/05, MTS assay, read-out: Antiviral EC50 Influenza B MTS); 2 µM in [23] (MDCK cells, B/Ned/537/05, visual CPE scoring, read-out: Antiviral EC50 Influenza B CPE).
